# Experiments:
# [1] = test system: OVCAR-3 cells; assay: Inhibition of OVCAR-3 cell proliferation (CellTiter-Glo cell viability); format: cell-based; conditions: Homo sapiens; OVCAR-3 cells (TP53 R248Q mutation), 72 hours culture with compound; read-out: IC50
# Outline: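 OVCAR-3 cells (TP53 R248Q) in RPMI 1640 with 10% FBS were seeded at 1000 cells/well, grown overnight, then exposed to compound (final 1000 nM–0.015 nM) for 72 h at 37°C, 5% CO2. Viability was read by CellTiter-Glo luminescence. IC50 came from nonlinear regression of inhibition relative to 0.3% DMSO control.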
# [2] = biological target: T1, recombinant human KIF18A (Homo sapiens, UniProt Q8NI77); assay: Inhibition of KIF18A enzyme activity (ADP-Glo assay); format: biochemical; conditions: recombinant human KIF18A 100 nM, ATP 60 µM, tubulin, paclitaxel; read-out: IC50
# T1 construct: purchased GenScript
# T1 sequence (Q8NI77 whole entry): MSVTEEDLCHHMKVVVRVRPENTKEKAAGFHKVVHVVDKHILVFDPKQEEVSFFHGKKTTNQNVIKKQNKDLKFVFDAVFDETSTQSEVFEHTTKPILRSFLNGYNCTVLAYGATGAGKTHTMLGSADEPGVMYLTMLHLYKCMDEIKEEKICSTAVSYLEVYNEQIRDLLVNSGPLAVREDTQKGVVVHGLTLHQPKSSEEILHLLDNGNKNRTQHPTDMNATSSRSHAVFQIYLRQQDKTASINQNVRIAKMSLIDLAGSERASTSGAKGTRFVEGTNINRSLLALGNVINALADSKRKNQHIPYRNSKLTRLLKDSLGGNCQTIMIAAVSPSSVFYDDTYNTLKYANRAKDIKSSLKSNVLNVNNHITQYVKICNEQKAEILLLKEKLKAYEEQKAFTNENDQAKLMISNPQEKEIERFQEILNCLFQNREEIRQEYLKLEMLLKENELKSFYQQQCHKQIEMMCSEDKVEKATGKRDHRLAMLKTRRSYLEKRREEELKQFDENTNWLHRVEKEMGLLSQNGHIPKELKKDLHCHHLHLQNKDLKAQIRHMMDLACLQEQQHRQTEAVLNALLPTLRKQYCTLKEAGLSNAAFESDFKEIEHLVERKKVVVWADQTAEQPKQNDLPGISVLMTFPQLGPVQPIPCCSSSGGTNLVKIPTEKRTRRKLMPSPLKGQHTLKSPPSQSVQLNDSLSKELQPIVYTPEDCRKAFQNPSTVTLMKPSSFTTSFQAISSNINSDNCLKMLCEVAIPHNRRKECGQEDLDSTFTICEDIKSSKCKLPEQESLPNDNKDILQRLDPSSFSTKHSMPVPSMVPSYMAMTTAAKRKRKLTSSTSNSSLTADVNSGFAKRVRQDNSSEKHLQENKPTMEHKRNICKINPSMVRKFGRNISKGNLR
# T1 sequence (P68363 whole entry partner): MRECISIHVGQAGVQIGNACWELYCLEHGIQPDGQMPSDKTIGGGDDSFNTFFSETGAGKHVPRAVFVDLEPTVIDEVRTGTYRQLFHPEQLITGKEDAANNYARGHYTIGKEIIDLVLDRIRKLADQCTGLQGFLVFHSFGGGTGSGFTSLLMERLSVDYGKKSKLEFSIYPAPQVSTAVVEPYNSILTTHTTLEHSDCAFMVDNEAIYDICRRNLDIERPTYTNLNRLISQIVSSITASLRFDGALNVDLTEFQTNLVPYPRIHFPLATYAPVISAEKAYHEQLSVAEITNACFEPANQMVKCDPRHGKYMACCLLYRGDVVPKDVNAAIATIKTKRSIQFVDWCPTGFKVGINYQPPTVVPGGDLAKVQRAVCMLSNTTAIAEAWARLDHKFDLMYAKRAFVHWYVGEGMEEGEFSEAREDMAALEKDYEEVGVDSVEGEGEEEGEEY
# T1 sequence (Q9BVA1 whole entry partner): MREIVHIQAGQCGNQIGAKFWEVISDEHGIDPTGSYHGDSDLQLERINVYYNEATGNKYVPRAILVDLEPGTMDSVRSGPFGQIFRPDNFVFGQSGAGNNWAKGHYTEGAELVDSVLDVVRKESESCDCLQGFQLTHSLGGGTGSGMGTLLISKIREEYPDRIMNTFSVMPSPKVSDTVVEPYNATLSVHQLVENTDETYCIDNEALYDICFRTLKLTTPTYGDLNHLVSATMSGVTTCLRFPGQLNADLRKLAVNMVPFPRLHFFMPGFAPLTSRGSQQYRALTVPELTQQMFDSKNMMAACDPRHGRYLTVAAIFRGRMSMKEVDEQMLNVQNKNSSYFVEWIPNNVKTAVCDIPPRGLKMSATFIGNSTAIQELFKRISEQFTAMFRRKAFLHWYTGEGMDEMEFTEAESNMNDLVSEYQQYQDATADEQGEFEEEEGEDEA
# [3] = Pharmacokinetic testing in mice after intragastric administration; format: in vivo; conditions: ICR mice; for area under the curve (in words) / pharmacokinetic properties (in words) / plasma concentration (in words): oral 10 mg/kg, conclusion; for AUC(0-inf) / half-life / Cmax: male, mouse, oral administration 10 mg/kg, plasma; for AUC(0-inf): read-out: Area under the curve AUC0-∞; for half-life: read-out: Half-life period T1/2 (converted); for Cmax: read-out: Plasma concentration Cmax
# Procedure: ICR mice were taken as test animals, and intragastrically administered with a control compound AMG650 and compounds 47 and 53 of the present invention, and then drug concentrations in plasma at different moments were determined by an LC/MS/MS method, so as to study pharmacokinetic characteristics of the compounds of the present invention in the mice.
# Control compound AMG650, and Compounds 47 and 53.
# ICR mice, male, 20-22 g, purchased from Vital River Laboratory Animal Technology Co., Ltd.
# A proper amount of to-be-tested compound was weighed, proper amounts of DMA, 30% HS-15 and Saline were added in sequence, and the mixture was well mixed by ultrasonic vortex to prepare 1 mg/mL drug preparations respectively, wherein […]: 30% HS-15: Saline=5: 5: 90 (v: v: v).
# ICR mice in each to-be-tested compound injection group (9 mice in each group) were fasted overnight and then intragastrically administered with the compound (PO, an administration dosage of the compound was 10 mg/kg and an administration volume of the compound was 10 mL/kg), and were fed 4 hours after administration.
# 0.25 hours, 0.5 hours, 1 hour, 2 hours, 4 hours, 6 hours, 8 hours and 24 hours before and after administration, about […] of blood was collected through an orbit, and a complete blood sample was placed in an EDTA-K2-containing anticoagulation tube. The collected blood samples were placed on ice, and plasma was centrifugally separated (centrifugation conditions: 1500 g, 10 minutes). The collected plasma was stored at -40°C - -20°C before analysis.
# A content of the to-be-tested compound in the plasma of the mice after intragastric administration was determined by LC-MS/MS.
Structure (SMILES),IC50 [1] [nM],IC50 [2] [nM],area under the curve (in words) [3],pharmacokinetic properties (in words) [3],plasma concentration (in words) [3],AUC(0-inf) [3] [ng·h/mL],half-life [3] [min],Cmax [3] [ng/mL]
"CCS(=O)(=O)Nc1ccc(C(=O)Nc2ccc(-c3ncn(C)n3)c(OCC(F)(F)F)c2)c(N2CCC3(CC2)CC3)c1 [Example 47, 4-(ethylsulfonamido)-N-(4-(1-methyl-1H-1,2,4-triazol-3-yl)-3-(2,2,2-trifluoroethoxy)pheny 1)-2-(6-azaspiro[2.5]octan-6-yl)benzamide]",5.8,155,large area under the curve,good pharmacokinetic properties,high plasma concentration,44100,327,3500
"CCS(=O)(=O)Nc1ccc(C(=O)Nc2ccc(-c3ncccn3)c(OCC(F)(F)F)c2)c(N2CCC3(CC2)CC3)c1 [Example 53, 4-(ethylsulfonamido)-N-(4-(pyrimidin-2-yl)-3-(2,2,2-trifluoroethoxy)phenyl)-2-(6-azaspiro[2.5]octan-6-yl)benzamide]",9.5,142,large area under the curve,good pharmacokinetic properties,high plasma concentration,83700,727,5790

# — patent publication EP4748837A1, “AROMATIC AMIDE DERIVATIVE, AND PREPARATION METHOD THEREFOR AND USE THEREOF” (Zhejiang Hisun Pharmaceutical Co., Ltd., priority 2023, dated 2025)
